Test [1] deals with cAMP-dependent protein kinase catalytic subunit beta (Homo sapiens, UniProt P22694).
Test [2] addresses T1, Serine/threonine-protein kinase DCLK3 (Homo sapiens, UniProt Q9C098).
T1 sequence (Q9C098 whole entry): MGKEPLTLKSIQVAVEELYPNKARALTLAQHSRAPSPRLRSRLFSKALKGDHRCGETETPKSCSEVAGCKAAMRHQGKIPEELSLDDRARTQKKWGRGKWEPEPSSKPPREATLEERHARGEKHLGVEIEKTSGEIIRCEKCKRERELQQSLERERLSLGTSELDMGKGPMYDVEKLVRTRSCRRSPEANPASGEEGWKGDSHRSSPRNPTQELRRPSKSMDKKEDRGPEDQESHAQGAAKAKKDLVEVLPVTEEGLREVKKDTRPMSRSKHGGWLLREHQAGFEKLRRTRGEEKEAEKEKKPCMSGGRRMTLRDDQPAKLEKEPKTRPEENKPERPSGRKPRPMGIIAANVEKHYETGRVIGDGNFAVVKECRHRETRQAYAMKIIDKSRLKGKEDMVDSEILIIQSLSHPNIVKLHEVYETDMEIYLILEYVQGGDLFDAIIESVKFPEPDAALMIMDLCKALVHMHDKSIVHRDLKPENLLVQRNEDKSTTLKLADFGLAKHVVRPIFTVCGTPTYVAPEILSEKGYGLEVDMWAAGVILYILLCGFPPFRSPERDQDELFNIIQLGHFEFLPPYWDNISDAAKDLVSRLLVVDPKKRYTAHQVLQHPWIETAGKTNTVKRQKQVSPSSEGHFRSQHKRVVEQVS

Test [3] deals with MAP kinase-activated protein kinase 2 (Homo sapiens, UniProt P49137).
Test [4] has as its target Protein-tyrosine kinase 6 (Homo sapiens, UniProt Q13882).
Test [5] deals with T2, Dual specificity protein kinase TTK (Homo sapiens, UniProt P33981).
T2 sequence (P33981 whole entry): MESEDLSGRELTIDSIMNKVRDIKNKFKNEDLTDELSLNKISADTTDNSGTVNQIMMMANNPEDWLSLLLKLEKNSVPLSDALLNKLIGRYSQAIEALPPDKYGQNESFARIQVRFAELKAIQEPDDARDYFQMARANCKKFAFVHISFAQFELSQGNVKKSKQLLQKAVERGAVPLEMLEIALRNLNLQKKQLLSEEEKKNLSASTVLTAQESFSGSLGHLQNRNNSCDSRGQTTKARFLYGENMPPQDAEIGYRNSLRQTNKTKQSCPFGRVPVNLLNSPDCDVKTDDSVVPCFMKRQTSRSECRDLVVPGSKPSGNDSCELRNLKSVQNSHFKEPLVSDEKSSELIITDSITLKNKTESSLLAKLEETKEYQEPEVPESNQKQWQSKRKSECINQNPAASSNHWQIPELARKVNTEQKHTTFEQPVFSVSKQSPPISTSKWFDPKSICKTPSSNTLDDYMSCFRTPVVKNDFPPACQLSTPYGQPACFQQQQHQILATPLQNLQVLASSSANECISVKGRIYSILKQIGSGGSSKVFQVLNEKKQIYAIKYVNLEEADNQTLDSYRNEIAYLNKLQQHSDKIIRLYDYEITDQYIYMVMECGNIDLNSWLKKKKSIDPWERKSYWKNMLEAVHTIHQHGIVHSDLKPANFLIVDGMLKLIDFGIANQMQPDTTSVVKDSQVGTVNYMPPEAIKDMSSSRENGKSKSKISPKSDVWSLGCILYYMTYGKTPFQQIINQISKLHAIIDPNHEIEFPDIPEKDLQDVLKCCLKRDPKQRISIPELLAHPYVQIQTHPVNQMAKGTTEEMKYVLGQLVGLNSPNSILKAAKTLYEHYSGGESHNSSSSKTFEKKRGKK

The target of test [6] is Serine/threonine-protein kinase 32B (Homo sapiens, UniProt Q9NY57).
Test [7] addresses T3, NUAK family SNF1-like kinase 2 (Homo sapiens, UniProt Q9H093).
T3 sequence (Q9H093 whole entry): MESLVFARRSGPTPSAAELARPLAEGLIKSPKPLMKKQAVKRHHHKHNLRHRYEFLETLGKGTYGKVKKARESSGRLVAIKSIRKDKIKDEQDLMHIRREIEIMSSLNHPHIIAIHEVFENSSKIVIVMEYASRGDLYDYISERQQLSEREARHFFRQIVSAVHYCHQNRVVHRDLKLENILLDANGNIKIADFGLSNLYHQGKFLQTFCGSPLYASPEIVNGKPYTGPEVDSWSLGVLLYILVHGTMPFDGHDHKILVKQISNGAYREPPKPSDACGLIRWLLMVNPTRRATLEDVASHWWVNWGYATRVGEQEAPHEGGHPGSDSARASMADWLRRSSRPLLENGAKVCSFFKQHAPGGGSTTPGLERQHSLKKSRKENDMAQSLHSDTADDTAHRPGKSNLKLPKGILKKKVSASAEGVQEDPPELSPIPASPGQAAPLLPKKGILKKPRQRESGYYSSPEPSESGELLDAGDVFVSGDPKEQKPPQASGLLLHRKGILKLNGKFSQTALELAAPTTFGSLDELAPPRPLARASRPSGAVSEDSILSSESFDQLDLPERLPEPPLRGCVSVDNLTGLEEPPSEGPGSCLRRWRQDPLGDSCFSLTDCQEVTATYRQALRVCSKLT

Test [8] deals with Mitogen-activated protein kinase 10 (Homo sapiens, UniProt P53779).
The target in test [9] is Tyrosine-protein kinase JAK2 (Homo sapiens, UniProt O60674).

One may read the Kd as the free concentration of one partner at which half of the binding sites on the other are occupied at equilibrium, for simple one-to-one binding.

Chain of MAP kinase-activated protein kinase 2 (P49137 whole entry): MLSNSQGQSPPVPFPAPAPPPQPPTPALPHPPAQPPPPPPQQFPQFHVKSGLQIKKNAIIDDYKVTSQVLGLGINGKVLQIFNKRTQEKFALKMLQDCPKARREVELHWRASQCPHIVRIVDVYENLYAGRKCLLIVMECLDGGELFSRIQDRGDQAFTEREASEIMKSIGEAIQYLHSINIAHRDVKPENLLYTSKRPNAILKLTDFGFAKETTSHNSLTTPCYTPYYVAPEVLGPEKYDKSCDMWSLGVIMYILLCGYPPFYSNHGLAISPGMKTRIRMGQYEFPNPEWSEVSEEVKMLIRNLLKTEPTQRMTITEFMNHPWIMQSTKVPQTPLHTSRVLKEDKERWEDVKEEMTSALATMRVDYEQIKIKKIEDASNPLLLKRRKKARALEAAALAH
Chain of Serine/threonine-protein kinase 32B (Q9NY57 whole entry): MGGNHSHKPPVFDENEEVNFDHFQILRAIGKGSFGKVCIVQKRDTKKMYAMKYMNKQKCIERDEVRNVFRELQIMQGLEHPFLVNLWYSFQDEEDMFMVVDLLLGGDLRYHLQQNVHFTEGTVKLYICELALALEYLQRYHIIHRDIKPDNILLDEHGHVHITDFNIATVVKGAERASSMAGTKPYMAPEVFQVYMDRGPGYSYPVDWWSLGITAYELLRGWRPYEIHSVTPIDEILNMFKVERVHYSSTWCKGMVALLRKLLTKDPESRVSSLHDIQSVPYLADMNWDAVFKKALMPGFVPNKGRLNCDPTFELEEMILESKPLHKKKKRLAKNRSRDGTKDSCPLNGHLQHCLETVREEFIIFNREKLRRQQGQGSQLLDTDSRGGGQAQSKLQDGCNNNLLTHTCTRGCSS
Chain of Mitogen-activated protein kinase 10 (P53779 whole entry): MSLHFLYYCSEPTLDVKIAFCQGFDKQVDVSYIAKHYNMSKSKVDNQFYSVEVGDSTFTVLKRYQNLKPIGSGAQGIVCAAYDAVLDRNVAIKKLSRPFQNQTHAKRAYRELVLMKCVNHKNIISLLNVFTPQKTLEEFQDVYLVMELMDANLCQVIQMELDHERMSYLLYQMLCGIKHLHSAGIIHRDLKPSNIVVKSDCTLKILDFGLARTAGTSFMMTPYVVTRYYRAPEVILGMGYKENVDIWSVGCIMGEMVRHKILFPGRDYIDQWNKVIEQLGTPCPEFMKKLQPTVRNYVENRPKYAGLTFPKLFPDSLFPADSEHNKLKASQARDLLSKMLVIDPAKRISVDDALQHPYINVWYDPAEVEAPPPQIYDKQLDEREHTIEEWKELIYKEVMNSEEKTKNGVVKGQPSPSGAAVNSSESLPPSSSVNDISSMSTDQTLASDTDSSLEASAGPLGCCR
Chain of Tyrosine-protein kinase JAK2 (O60674 whole entry): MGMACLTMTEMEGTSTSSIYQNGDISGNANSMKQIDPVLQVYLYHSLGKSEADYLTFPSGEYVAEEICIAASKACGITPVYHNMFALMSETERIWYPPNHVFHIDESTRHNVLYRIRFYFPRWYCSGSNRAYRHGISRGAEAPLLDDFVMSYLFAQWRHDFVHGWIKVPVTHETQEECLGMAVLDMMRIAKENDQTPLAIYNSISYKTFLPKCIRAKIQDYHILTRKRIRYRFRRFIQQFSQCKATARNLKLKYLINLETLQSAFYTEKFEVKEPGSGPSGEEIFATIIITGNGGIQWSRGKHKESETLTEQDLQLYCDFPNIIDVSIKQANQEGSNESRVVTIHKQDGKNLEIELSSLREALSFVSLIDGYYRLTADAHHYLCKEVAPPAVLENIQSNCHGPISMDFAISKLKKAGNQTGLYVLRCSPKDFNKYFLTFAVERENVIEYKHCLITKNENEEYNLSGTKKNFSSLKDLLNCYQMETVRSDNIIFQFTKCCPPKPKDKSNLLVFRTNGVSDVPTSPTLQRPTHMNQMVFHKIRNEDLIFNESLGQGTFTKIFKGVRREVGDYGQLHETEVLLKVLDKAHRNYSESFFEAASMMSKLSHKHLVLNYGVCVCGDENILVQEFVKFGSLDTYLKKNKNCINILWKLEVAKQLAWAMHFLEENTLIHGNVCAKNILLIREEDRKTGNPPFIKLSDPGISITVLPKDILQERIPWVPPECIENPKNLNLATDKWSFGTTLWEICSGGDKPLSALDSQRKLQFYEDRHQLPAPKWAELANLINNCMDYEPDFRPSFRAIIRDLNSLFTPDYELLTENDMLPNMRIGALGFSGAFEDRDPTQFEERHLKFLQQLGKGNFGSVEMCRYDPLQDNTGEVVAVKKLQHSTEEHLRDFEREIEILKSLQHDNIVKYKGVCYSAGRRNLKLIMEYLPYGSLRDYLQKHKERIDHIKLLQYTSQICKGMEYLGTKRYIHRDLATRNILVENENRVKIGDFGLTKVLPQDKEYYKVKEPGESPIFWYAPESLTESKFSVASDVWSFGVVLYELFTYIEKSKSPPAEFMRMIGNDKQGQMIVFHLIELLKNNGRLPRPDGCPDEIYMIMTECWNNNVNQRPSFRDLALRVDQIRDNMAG
Chain of Protein-tyrosine kinase 6 (Q13882 whole entry): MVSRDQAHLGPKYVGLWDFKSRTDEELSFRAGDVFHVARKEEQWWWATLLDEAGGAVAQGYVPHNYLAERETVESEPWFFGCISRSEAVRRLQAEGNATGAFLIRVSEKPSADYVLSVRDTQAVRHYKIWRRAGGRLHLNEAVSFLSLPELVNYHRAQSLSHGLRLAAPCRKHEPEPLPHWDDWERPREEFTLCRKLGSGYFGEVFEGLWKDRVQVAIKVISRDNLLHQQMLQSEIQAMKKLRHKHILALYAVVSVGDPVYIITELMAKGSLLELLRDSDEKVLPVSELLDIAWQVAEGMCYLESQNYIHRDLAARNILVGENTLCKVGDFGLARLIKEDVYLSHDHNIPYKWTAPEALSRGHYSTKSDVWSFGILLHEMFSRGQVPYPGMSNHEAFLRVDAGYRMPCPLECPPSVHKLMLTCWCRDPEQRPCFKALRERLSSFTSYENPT

With `Oc1ccc(-c2nc(-c3ccncc3)c(-c3ccc(F)cc3)[nH]2)cc1` [SB-202190], the Kd in test [1] is 0.53 µM; in [2], above 10 µM; in test [3], above 10 µM; in test [4], 6.8 µM; in test [5] it was 4.5 µM; in test [6] it was 4.9 µM. Further, the Kd in [7] was above 10 µM; in [8], 0.042 µM; in test [9] it was above 10 µM.

As for `COCC(=O)NC/C=C/c1ccc2ncnc(Nc3ccc(Oc4ccc(C)nc4)c(C)c3)c2c1` [CP-724714], the Kd in test [1], in [2], in [3], in [4], in [5] and in test [6] was above 10 µM in each case. For the same compound, the Kd in test [7], in test [8] and in test [9] was above 10 µM throughout.

In the case of `Nc1nc(Nc2ccc(S(N)(=O)=O)cc2)nn1C(=O)c1c(F)cccc1F` [JNJ-7706621], the Kd in test [1] was above 10 µM; in [3] it was above 10 µM; in test [4], above 10 µM; in test [6], above 10 µM; in [7], 0.026 µM.

For `NC(=O)c1ccc(-c2nc(-c3ccc4c(c3)OCO4)c(-c3ccccn3)[nH]2)cc1` [SB-431542], the Kd in test [1], in [2], in test [3], in [4], in test [5] and in test [6] was above 10 µM in each case. The dissociation constant Kd in [7], in [8] and in test [9] was above 10 µM throughout.

On to `CCOc1cc2ncc(C#N)c(Nc3ccc(F)c(Cl)c3)c2cc1NC(=O)/C=C/CN(C)C` [PELITINIB], for which the Kd in [1] was above 10 µM; in test [2] it was 4.9 µM; in test [3] it was above 10 µM; in test [4], above 10 µM; in [5] it was above 10 µM; in test [6], 6 µM. The Kd in [7] was 2.7 µM; in test [8] it was above 10 µM; in test [9] it was above 10 µM.

For the origin of these results see ChEMBL document CHEMBL1150977, “A quantitative analysis of kinase inhibitor selectivity” (Nat Biotechnol, 2008).
